Biological target: T1, choline kinase (CK) [EC 2.7.1.32] (Saccharomyces cerevisiae, UniProt P20485)
T1 sequence (P20485 2-582): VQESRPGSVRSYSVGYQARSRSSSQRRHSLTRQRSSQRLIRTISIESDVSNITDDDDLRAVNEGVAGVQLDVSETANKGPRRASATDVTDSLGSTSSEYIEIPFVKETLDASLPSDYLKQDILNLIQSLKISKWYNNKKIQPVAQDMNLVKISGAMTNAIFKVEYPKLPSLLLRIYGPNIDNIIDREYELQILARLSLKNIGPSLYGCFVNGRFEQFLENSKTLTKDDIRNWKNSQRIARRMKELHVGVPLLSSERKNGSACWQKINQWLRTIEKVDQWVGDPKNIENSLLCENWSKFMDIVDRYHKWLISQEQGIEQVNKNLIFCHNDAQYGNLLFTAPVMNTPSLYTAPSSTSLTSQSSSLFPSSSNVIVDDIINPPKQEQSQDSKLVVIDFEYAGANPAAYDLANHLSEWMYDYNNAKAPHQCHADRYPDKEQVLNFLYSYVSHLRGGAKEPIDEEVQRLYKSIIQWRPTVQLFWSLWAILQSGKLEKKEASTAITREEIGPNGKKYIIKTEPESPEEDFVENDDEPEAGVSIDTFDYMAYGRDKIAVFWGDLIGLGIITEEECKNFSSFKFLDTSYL
Experiment: 1H NMR
Assay type: biochemical

- IC50: < 500 nM
Compound: CN1CC[C@H](c2c(O)cc(O)c3c(=O)cc(-c4ccccc4Cl)oc23)[C@H](O)C1 [flavopiridol]

— publication PMC3201722 (NMR in biomedicine, 2011)
